For assay [1], the target named is T1, FAP-expressing human WI-38 fibroblasts (Homo sapiens, UniProt Q12884).
T1 construct: FAP-expressing human WI-38 fibroblasts (ECACC 90020107) were cultured in EMEM; host or cells: WI-38 human fibroblasts
T1 sequence (Q12884 1-760): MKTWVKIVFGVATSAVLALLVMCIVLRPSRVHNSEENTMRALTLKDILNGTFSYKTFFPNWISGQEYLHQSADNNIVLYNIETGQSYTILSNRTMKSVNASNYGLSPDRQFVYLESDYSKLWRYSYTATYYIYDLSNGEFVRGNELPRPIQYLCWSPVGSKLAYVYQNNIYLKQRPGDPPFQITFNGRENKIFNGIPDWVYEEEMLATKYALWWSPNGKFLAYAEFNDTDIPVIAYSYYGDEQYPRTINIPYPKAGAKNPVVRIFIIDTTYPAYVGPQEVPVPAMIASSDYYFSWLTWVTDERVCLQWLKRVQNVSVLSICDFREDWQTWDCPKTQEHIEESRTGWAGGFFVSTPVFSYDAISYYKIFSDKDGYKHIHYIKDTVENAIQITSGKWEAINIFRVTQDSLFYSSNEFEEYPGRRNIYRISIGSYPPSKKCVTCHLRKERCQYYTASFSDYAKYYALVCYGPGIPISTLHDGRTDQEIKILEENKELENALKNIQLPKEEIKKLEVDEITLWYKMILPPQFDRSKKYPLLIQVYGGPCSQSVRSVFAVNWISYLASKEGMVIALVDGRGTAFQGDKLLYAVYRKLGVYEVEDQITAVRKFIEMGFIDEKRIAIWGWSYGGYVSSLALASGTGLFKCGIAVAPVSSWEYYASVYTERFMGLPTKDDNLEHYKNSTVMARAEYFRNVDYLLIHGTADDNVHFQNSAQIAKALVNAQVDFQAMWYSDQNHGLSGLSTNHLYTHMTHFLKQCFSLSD
The experiment in a line: Competitive FACS binding assay (displacement of Cy5-labeled FAP inhibitor 3BP-2935). As to conditions: 3 nM Cy5-labeled 3BP-2935, 4°C, 1 hour. The method, then: In order to determine binding of compounds according to the present invention to FAP-expressing cells, a competitive FACS binding assay was established.
Cells were diluted in FACS buffer to a final concentration of 100.000 cells per ml and 200 µl of the cell suspension are transferred to a u-shaped non-binding 96-well plate (Greiner).
Cell were washed twice with FACS buffer (see above) and resuspended in 200 µl FACS buffer. Cells were analyzed in an Attune NxT flow cytometer (Thermo Fisher Scientific). Median fluorescence intensities (Cy5 channel) was calculated by Attune NxT software and plotted against test compound concentrations. Four parameter logistic (4PL) curve fitting and pIC50 calculations were performed using ActivityBase software.
(In general: A flow cytometer gives signals particle by particle.)

Assay [2] deals with T2, Human recombinant FAP (Homo sapiens, UniProt Q12884).
T2 sequence (Q12884 1-760): T1 sequence (Q12884 1-760)
The assay can be described thus: FRET-based FAP protease activity assay (human). Also noted: purchased R&D systems 3715-SE. Particulars: FRET-peptide substrate, 37°C; for IC50: read-out: pIC50 (Activity) (converted). The format is biochemical. On the procedure: (§1) In order to determine the inhibitory activity a FRET-based FAP protease activity assay was established.
25 µL of a 30 µM substrate solution, diluted in assay buffer, was added. […] Four parameter logistic (4PL) curve fitting and pIC50 calculations were performed using ActivityBase software (IDBS).

For the next assay, the target named is T3, Recombinant mouse FAP (Mus musculus, UniProt P97321).
T3 construct: purchased R&D systems 8647-SE
T3 sequence (P97321 1-761): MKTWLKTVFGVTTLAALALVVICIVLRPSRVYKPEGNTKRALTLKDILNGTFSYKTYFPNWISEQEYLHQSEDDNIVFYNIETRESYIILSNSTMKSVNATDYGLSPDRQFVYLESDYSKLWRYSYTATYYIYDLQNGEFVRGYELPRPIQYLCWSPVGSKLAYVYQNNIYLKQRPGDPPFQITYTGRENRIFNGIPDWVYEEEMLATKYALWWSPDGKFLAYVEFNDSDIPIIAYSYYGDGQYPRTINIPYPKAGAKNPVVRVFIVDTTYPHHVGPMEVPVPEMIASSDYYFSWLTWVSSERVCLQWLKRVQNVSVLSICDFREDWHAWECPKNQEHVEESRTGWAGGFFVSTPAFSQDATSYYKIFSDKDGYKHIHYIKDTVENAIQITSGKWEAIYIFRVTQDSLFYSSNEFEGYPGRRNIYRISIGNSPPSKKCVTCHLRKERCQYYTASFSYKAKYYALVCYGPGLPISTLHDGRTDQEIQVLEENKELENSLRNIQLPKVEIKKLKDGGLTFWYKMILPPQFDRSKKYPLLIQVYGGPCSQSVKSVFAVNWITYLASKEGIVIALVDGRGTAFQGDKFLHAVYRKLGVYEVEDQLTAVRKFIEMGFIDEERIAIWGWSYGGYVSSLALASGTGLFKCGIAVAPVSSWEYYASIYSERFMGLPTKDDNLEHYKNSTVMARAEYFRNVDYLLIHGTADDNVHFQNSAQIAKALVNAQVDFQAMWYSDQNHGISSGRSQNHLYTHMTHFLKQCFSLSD
The assay can be described thus: FRET-based FAP protease activity assay (mouse). The format is biochemical. As to conditions: FRET-peptide substrate, 37°C; for IC50: read-out: pIC50 (mouseFAP) (converted). The method, then:
as §1
25 µL of a 30 µM substrate solution, diluted in assay buffer, was added. […] Four parameter logistic (4PL) curve fitting and pIC50 calculations were performed using ActivityBase software.

A further assay has as its target T4, Recombinant human DPP4 (Homo sapiens, UniProt P27487).
T4 construct: purchased R&D systems 9168-SE
The assay can be described thus: DPP4 protease activity assay. The format is biochemical. Particulars: 20 µM GP-AMC substrate; for IC50: read-out: pIC50 (DPP4) (converted). The method, then:
The PREP activity assay was performed using the FACS buffer (PBS including 1% FBS, Sigma-Aldrich, Cat# D8537). […] The DPP4 activity assay was performed in DPP assay buffer (25 mM Tris, pH 8.0).
Four parameter logistic (4PL) curve fitting and pIC50 calculations were performed using ActivityBase software.

The target in assay [3] is T2, Human recombinant FAP. The assay can be described thus: Surface plasmon resonance assay (Biacore T200, single cycle kinetics). The format is binding. As to conditions: SPR, 25°C; for pKD (Biacore): 1:1 Langmuir binding model; for HL [min] (Biacore): half-life. On the procedure: Surface plasmon resonance studies were performed using a Biacore™ T200 SPR system (Cytiva, formerly GE Healthcare). Briefly, polarized light is directed towards a gold-labeled sensor surface, and minimum intensity reflected light is detected. The angle of reflected light changes as molecules bind and dissociate. […] Test compounds are contacted with the loaded surface, and a real-time interaction profile with the FAP ligand is recorded in a sensorgram. In real-time, the association and dissociation of a binding interaction is measured, enabling calculation of association and dissociation rate constants and the corresponding affinity constants. Importantly, a background response is generated due to the difference in the refractive indices of the running and sample buffers, as well as unspecific binding of the test compounds to the flow cell surface. This background is measured and subtracted by running the sample on a control flow cell coated with the same density of capture antibody in the absence of immobilized FAP. Furthermore, baseline drift correction of the binding data is performed, which is caused by slow dissociation of the captured FAP from the immobilized antibody. This drift is measured by injecting running buffer through a flow cell with the antibody and FAP immobilized to the sensor surface.
Biacore™ CM5 sensor chips were used. […] A 150 µL aliquot was transferred into plastic vials and placed into the sample rack of the Biacore™ T200 instrument. Amine Coupling Kit Reagent solutions were transferred into plastic vials and placed into the sample rack: 90 µL of 0.4 M 1-ethyl-3-(3-dimethylaminopropyl)carbodiimide (EDC), and 90 µL of 0.1 M N-hydroxysuccinimide (NHS). A 130 µL aliquot of 1 M ethanolamine-HCl, pH 8.5, was transferred into plastic vials and placed into the sample rack. The Biacore™ liquid system was set-up as follows: Separate bottles containing distilled water (1 L), Running Buffer (500 mL), as well as an empty bottle for waste were placed onto the buffer tray. A preinstalled program for immobilization was used, with an immobilization level of 7000 RU. Immobilization was performed at 25°C. The immobilization procedure of anti-FAP antibodies was performed, as described in the Table 5. Table 5: Immobilization protocol for anti-FAP antibodies used on the CM5 sensor chip.
Human recombinant FAP was diluted in Running Buffer to a final concentration of 20 µg/mL. A 100 µL aliquot of human FAP-Working-Solution was transferred into plastic vials and placed into a sample rack. A 0.5 mM Compound-Stock-Solution was prepared by dissolving each compound in DMSO. For each test compound, Compound-Stock-Solutions were diluted in Running Buffer (HBST) at 500 nM and further diluted with HBST-DMSO Buffer (0.1% DMSO). SPR binding analyses for binary complexes were performed in SCK mode at 25°C. Following three SCK measurements, a baseline drift was assessed by injecting running buffer through a flow cell, with the antibody and FAP immobilized to the sensor surface. Table 6: Protocol for assessing the binding kinetics.
For each test compound, SPR raw data in the form of resonance units (RU) were plotted as sensorgrams using the Biacore™ T200 control software. The signal from the blank sensorgram was subtracted from that of the test compound sensorgram (blank corrected). The blank corrected sensorgram was corrected for baseline drift by subtracting the sensorgram of a SCK run without the test compound (running buffer only). The association rate (kon), dissociation rate (koff), dissociation constant (KD), and t1/2 were calculated from Blank-normalized SPR data using the 1:1 Langmuir binding model from the Biacore™ T200 evaluation software. Raw data and fit results were imported as text files in IDBS. The pKD value (negative decadic logarithm of dissociation constant) was calculated in the IDBS excel template.
In general terms: SPR reads the build-up and loss of mass on a sensor chip optically.

T4 sequence (P27487 whole entry): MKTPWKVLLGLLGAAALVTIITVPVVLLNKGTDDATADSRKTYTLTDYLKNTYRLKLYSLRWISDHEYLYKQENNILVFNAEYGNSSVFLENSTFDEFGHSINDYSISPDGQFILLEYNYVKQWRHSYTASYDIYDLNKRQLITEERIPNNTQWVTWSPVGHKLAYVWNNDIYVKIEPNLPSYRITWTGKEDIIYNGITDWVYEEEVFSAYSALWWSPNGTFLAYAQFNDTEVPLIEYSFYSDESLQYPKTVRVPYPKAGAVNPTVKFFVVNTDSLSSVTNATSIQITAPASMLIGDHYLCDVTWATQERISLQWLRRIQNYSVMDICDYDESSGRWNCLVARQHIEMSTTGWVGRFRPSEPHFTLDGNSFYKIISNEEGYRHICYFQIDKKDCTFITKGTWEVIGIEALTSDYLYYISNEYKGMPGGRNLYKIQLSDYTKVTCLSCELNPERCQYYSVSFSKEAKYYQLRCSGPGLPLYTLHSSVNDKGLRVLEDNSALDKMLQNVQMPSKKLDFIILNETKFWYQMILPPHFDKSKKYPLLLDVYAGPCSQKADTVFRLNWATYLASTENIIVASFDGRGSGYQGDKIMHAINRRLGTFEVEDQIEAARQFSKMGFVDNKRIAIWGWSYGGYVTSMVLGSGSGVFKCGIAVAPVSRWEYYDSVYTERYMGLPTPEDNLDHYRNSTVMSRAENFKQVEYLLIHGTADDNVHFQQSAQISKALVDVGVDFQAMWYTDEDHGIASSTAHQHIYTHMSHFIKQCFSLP

Turning to `O=C(NCC(=O)N1CCC[C@H]1C(=O)c1ncn[nH]1)c1ccnc2ccccc12`, the IC50 in assay [1] was 200 nM; at Human recombinant FAP [2] it was 63.1 nM; on Recombinant mouse FAP, 79.4 nM.
Regarding `N#C[C@@H]1CC(F)(F)CN1C(=O)CNC(=O)c1cc[n+]([O-])c2ccc(-c3ccc(S(=O)(=O)CCCNC(=O)CN4CCN(CC(=O)O)CCN(CC(=O)O)CCN(CC(=O)O)CC4)cc3)cc12`, the “pIC50 (DPP4)” value on Recombinant human DPP4 came out at 7. Besides, on Human recombinant FAP [3], the “pKD (Biacore)” value is above 11 and the “HL [min] (Biacore)” value stood at 110 min. For the same compound, on Recombinant mouse FAP, the “pIC50 (mouseFAP)” value is given as 9.1.
As to `CS(=O)(=O)c1ccc(-c2ccc3nccc(C(=O)NCC(=O)N4C[C@H](F)C[C@H]4C#N)c3c2)cc1`, the IC50 at Recombinant human DPP4 was above 1000 nM; in assay [1], 50.1 nM; at Human recombinant FAP [2] it was 3.16 nM; at Recombinant mouse FAP, 10 nM.
The like results for `CS(=O)(=O)c1ccc(-c2ccc3nccc(C(=O)NCC(=O)N4C[C@@H](F)C[C@H]4C#N)c3c2)cc1` were, in that order, above 1000 nM, 1.58 nM, 0.631 nM and 0.631 nM.
The like results for `CS(=O)(=O)c1cc(F)c(-c2ccc3nccc(C(=O)NCC(=O)N4CCC[C@H]4C#N)c3c2)c(F)c1` were, in that order, above 1000 nM, 3.16 nM, 0.501 nM and 1 nM.
For the compound `Cc1cc(S(C)(=O)=O)ccc1-c1ccc2nccc(C(=O)NCC(=O)N3CC(F)(F)C[C@H]3C#N)c2c1`, the IC50 on Recombinant human DPP4 was 794 nM; in assay [1], 2 nM; on Human recombinant FAP [2] it was 0.501 nM; at Recombinant mouse FAP, 1.58 nM.
Turning to `Cc1cc(S(C)(=O)=O)ccc1-c1ccc2nccc(C(=O)NCC(=O)N3CCC[C@H]3C#N)c2c1`, the IC50 is above 1000 nM on Recombinant human DPP4, 12.6 nM in assay [1], 0.631 nM on Human recombinant FAP [2] and 1.26 nM at Recombinant mouse FAP.
As for `N#C[C@@H]1CCCN1C(=O)CNC(=O)c1ccnc2ccc(-c3ccc(C(=O)NCCCN(CC(=O)O)C(=O)CN4CCN(CC(=O)O)CCN(CC(=O)O)CCN(CC(=O)O)CC4)cc3)cc12`, on Recombinant human DPP4, the “pIC50 (DPP4)” value is below 6. Further, on Human recombinant FAP [3], the “pKD (Biacore)” value was above 11 and the “HL [min] (Biacore)” value is given as above 500 min. Also, at Recombinant mouse FAP, the “pIC50 (mouseFAP)” value was found to be 8.9.
As for `Cc1c(-c2ccc(S(C)(=O)=O)cc2)ccc2nccc(C(=O)NCC(=O)N3CC(F)(F)C[C@H]3C#N)c12`, the IC50 in assay [1] was 2 nM; on Human recombinant FAP [2], 0.501 nM; at Recombinant mouse FAP, 2 nM.
As to `Cc1cc2nccc(C(=O)NCC(=O)N3CC(F)(F)C[C@H]3C#N)c2cc1-c1ccc(S(C)(=O)=O)cc1`, the values for the IC50 (in assay [1]; on Human recombinant FAP [2]; on Recombinant mouse FAP) were 1.26 nM, 0.501 nM and 1.58 nM, respectively.
Turning to `CN(CCCN1CCN(C(=O)CN2CCN(CC(=O)O)CCN(CC(=O)O)CCN(CC(=O)O)CC2)CC1)c1ccc2nccc(C(=O)NCC(=O)N3CC(F)(F)C[C@H]3C#N)c2c1`, the “pIC50 (FACS)” value in assay [1] is on record as 9. The “pIC50 (Activity)” value at Human recombinant FAP [2] worked out at 8.9. Also, on Human recombinant FAP [3], the “pKD (Biacore)” value is above 11 and the “HL [min] (Biacore)” value is reported as above 500 min. At Recombinant mouse FAP, the “pIC50 (mouseFAP)” value worked out at 8.6.
Regarding `N#C[C@@H]1CC(F)(F)CN1C(=O)CNC(=O)c1ccnc2ccc(OCCCN3CCN(C(=O)CN4CCN(CC(=O)O)CCN(CC(=O)O)CCN(CC(=O)O)CC4)CC3)cc12` [drawing 287], the “pIC50 (DPP4)” value on Recombinant human DPP4 was below 6. Also, at Human recombinant FAP [3], the “HL [min] (Biacore)” value is reported as above 500 min. The “pIC50 (mouseFAP)” value at Recombinant mouse FAP was determined as 8.8.

Source of the values: patent publication EP4122499A1, “FIBROBLAST ACTIVATION PROTEIN INHIBITORS AND USE THEREOF” (3B Pharmaceuticals GmbH, priority 2021, dated 2023).
